From patent US9776990B2, “Isoindolone derivatives” (AbbVie Inc., priority 2012, dated 2017)
Marks after values point to notes of the source that are not given here.

Experiments:
HepG2 = assay: Proliferation panel assay, HepG2; type: cell-based; conditions: Homo sapiens, 120 h; Hepatocellular, HepG2, 5 days; read-out: Cellular Proliferation EC50
Method: (§1) The impact of compounds of the Examples on cancer cell proliferation was determined using the breast cancer cell line MX-1 (ATCC) in a 3-day proliferation assay. MX-1 cells were maintained in RPMI supplemented with 10% FBS at 37 C.° and an atmosphere of 5% CO2. For compound testing, MX-1 cells were plated in 96-well black bottom plates at a density of 5000 cells/well in 90 μl of culture media and incubated at 37° overnight to allow cell adhesion and spreading. Compound dilution series were prepared in DMSO via a 3-fold serial dilution from 3 mM to 0.1 μM. […]
(§2) Luminescence readings from the Cell Titer Glo assay were normalized to the DMSO treated cells and analyzed using the GraphPad Prism software with sigmoidal curve fitting to obtain EC50s. The minimum significant ratio (MSR) was determined to evaluate assay reproducibility (Eastwood et al., (2006) J Biomol Screen, 11: 253-261). The overall MSR was determined to be 2.1 and a moving MSR (last six run MSR overtime) has been <2.
(§3) The compound of Example 40 was tested for its impact on proliferation of a panel of cancer cell line types (with specific cell lines tested) as set out in (Table 2). […] Cell proliferation data were analyzed as described above in the MX-1 proliferation assay to obtain the EC50 for the compounds reported in Table 2.

[1] = tested on: OPM-2 human multiple myeloma cancer xenograft; assay: Xenograft tumor growth inhibition assay, OPM-2; type: in vivo, mice; conditions: OPM-2 xenograft
Method: The effect of the compound of Example 40 to inhibit the growth of Ramos, OPM-2, MX-1, MV4-11, and HT1080 xenograft tumors was evaluated. Briefly, 0.5×10^6 human cancer cells (HT1080), 1×10^6 human cancer cells (Ramos), 5×10^6 human cancer cells (OPM-2, MV4-11) or 1:10 tumor brie (MX-1) (in S-MEM (MEM, Suspension, no Calcium, no Glutamine)) (Life Technologies Corporation) were inoculated subcutaneously into the right hind flank of female SCID or SCID-beige (MV4-11, HT1080) mice (Charles Rivers Labs) on study day 0. Compound was formulated in 2% EtOH, 5% Tween-80, 20% PEG-400, 73% HPMC (Ramos, OPM-2 and MX-1) or 5% DMSO, 5% EtOH, 30% PEG400, 60% Phosal 53 (MV4-11, HT1080). Administration of compound was initiated at the time of size match on day 8 (HT1080), day 17 (MX-1), or day 18 (Ramos, MV4-11, OPM-2). The tumors were measured by a pair of calipers twice a week starting at the time of size match and tumor volumes were calculated according to the formula V=L×W^2/2 (V: volume, mm^3; L: length, mm. W: width, m) Tumor volume was measured for the duration of the experiment until the mean tumor volume in each group reached an endpoint of >1000 mm^3.

MDAMB231 = assay: Proliferation panel assay, MDAMB231; type: cell-based; conditions: Homo sapiens, MDA-MB-231, 120 h; Breast, MDAMB231, 5 days; read-out: Cellular Proliferation EC50
Method: as §1, §2, §3

PC3M = assay: Proliferation panel assay, PC3M; type: cell-based; conditions: Homo sapiens, PC-3M, 120 h, Prostate, 5 days, read-out: Cellular Proliferation EC50
Method: as §1, §2, §3

H460 = assay: Proliferation panel assay, H460; type: cell-based; conditions: Homo sapiens, NCI-H460, 120 h; NSCLC, H460, 5 days; read-out: Cellular Proliferation EC50
Method: as §1, §2, §3

Cc1[nH]c(-c2cc(NS(C)(=O)=O)ccc2Oc2ccccc2)c2c1C(=O)CCC2 [Example 40, N-[3-(3-methyl-4-oxo-4,5,6,7-tetrahydro-2H-isoindol-1-yl)-4-phenoxyphenyl]methanesulfonamide]
EC50 (HepG2): 320 nM
% TGI (tumor growth inhibition) ([1]; 10 mg/kg/day PO, BIDx14, based on day 31): 11%
% TGD (tumor growth delay) ([1]; 10 mg/kg/day PO, BIDx14, endpoint 1000 mm^3): 25%
% TGI (tumor growth inhibition) ([1]; 10 mg/kg/day PO, QDx14, based on day 31): 16%
% TGD (tumor growth delay) ([1]; 10 mg/kg/day PO, QDx14, endpoint 1000 mm^3): 25%
% TGI (tumor growth inhibition) ([1]; 30 mg/kg/day PO, BIDx14, based on day 31): 31* %
% TGD (tumor growth delay) ([1]; 30 mg/kg/day PO, BIDx14, endpoint 1000 mm^3): 88* %
% TGI (tumor growth inhibition) ([1]; 30 mg/kg/day PO, QDx14, based on day 31): 27* %
% TGD (tumor growth delay) ([1]; 30 mg/kg/day PO, QDx14, endpoint 1000 mm^3): 63%
% TGI (tumor growth inhibition) ([1]; 100 mg/kg/day PO, BIDx14, based on day 31): 43** %
% TGD (tumor growth delay) ([1]; 100 mg/kg/day PO, BIDx14, endpoint 1000 mm^3): 175*** %
% TGI (tumor growth inhibition) ([1]; 100 mg/kg/day PO, QDx14, based on day 31): 41** %
% TGD (tumor growth delay) ([1]; 100 mg/kg/day PO, QDx14, endpoint 1000 mm^3): 88*** %
EC50 (MDAMB231): 310 nM
EC50 (PC3M): 410 nM
EC50 (H460): > 10000 nM
